According to patent US20100124555A1, “Compositions and Methods for Treating Pancreatic Tumors” (UNIVERSITE DE LA MEDITERRANEE, priority 2007, published 2010):

How the values were obtained:
SOJ-6 cells [1] = test: Nuclear staining with DAPI (nuclear fragmentation); type: cell-based, human; conditions: RPMI induced no apoptosis
Description: After treatment with mAb16D10 or cisplatin, cells were washed in ice-cold PBS, fixed and permeablized with 70% ethanol for 5 min at […] and staining with diluted 1/1000 DAPI solution in PBS for 1 min at room temperature. The cells were then washed with PBS. The nuclear morphology of cells was examined by fluorescence microscopy.

[2] = tested on: Bcl-2, Bax, caspases 8 and 9, PARP in SOJ-6 cells; test: SDS-PAGE and western blot of apoptosis proteins; type: cell-based, human; conditions: SOJ-6, 24 hours
Description: SOJ-6 cells were grown in 6-well culture plates in RPMI 1640 medium with 10% FCS. At subconfluency, the medium was removed and replaced for 24 hours by fresh RPMI medium with 10% inactivated FCS. SOJ-6 cells were then incubated with mAb16D10 or Cisplatin for 24 hours. At the end of incubation, cells were washed three times with ice-cold PBS (without […] and Mg^++) harvested and pelleted by centrifugation. Pellets were washed twice and lysed at 4° C. in 0.5 ml of lysis buffer (10 mM Tris-HCl pH 7.4, 150 mM NaCl, 1% Triton X-100, 1 mM benzamidine and phosphatase inhibitors). After lysis, homogenates were clarified by centrifugation at 10,000 g for 10 min at 4° C. An aliquot was saved for protein determination using the bicinchoninic acid assay (Pierce, Rockford, Ill.). Proteins (50 μg/lane) in reducing SDS buffer were separated onto 10, 12, or 15% polyacrylamide with 0.1% SDS (according to the molecular weight range of proteins to be separated). After electrophoretic migration, proteins were silver stained. Alternatively, proteins were transferred onto nitrocellulose membranes using a Mini Transblot electrophoretic cell (BioRad, Hercule, Oreg.), and transferred proteins were immunodetected by using appropriate primary and secondary antibodies. After washes, membranes were developed with a chemoluminescent substrate according to the manufacturer's instructions (Roche Diagnostics, Switzerland). In each experiment, a control was included by omitting primary antibodies or by using a non-immune serum.

PANC-1 cells = test: MTT cell growth and proliferation assay, PANC-1; type: cell-based, human; conditions: PANC-1, 24 hours, gemcitabine 0 to 10 μM or cisplatin 0 to 40 μM
Description: (§1) Cell proliferation was determined using MTT assay as previously described (Mosmann et al., 1983 J Immunol Methods, 65(1-2):55-63). Briefly, cells were seeded at subconfluence in appropriate complete media containing 10% FCS in 96-well culture plates. Media were replaced for 24 h by fresh media with 10% inactivated FCS, including increasing concentrations of antibodies directed against FAPP (pAbL64, mAbJ28 and mAb16D10). Cells were washed with PBS and incubated with 100 μl of MTT (0.5 mg/ml) in complete media for 3 h, washed with PBS and finally incubated with DMSO for 30 min at 37° C. Cell growth was determined by measuring absorbance at 550 nm using a MR 5000 microplate spectrophotometer. All independent determinations were done in triplicate and compared to control.

[3] = tested on: 16D10 epitope on the BSDL/FAPP polypeptide of SOJ-6 cells; test: 16D10 epitope expression on drug-treated cells (immunofluorescence and flow cytometry); type: cell-based, human; conditions: for cell morphology of drug-treated cells: SOJ-6, immunofluorescence; for 16D10 staining by immunofluorescence of drug-treated cells: SOJ-6 on glass slides; for Average (16D10 binding, flow cytometry) / 16D10 epitope expression: SOJ-6 treated with 20 μM cisplatin or 5 μM gemcitabine; for Average (16D10 binding, flow cytometry): control 418.7 +/− 50.5; for 16D10 epitope expression: change versus control
Description: Antibody 16D10 binding to SOJ-6 cells following treatment with chemotherapeutic agents was tested in order to assess whether gemcitabine or cisplatin affect the expression of the 16D10 epitope on the BSDL/FAPP polypeptide. Antibody 16D10 binding was assessed by immunofluorescence and flow cytometry following treatment of SOJ-6 cells with 20 μM cisplatin or 5 μM gemcitabine.
For immunofluorescence, SOJ-6 cells were cultured on glass slides and treated or not with gemcitabine or cisplatin, fixed and incubated in the presence of 16D10 and a secondary antibody coupled to fluorescein. Slides were assessed with fluorescence microscope.

SOJ-6 cells [4] = test: MTT cell growth and proliferation assay, SOJ-6; type: cell-based, human; conditions: SOJ-6, 24 hours, gemcitabine 0 to 10 μM or cisplatin 0 to 40 μM
SOJ-6 cells [5] = test: MTT cell growth and proliferation assay, SOJ-6; type: cell-based, human; conditions: SOJ-6 treated with raft-disrupting drug or glycosphingolipid biosynthesis inhibitor (10 μM), with mAb16D10
Description: as §1

SOJ-6 cells [6] = test: Apoptosis by caspase activity (CaspACE FITC-VAD-fmk in situ marker); type: cell-based, human; conditions: SOJ-6, 24 hours; 16D10 25 μg/ml, recombinant chimeric 16D10 5 μg/ml
Description: Cells grown in 8-well plates (Polystyrene vessel, BD Falcon) were treated with mAb16D10 or mouse IgM in RPMI with inactivated FCS for 24 hours prior to the addition of CaspACE FITC-VAD-fmk in situ marker (Promega) at a final concentration of 10 μM in the culture medium according to manufacturer's instructions. Then cells were washed in PBS, fixed for 15 minutes in 2% paraformaldehyde, and washed once again. Upon caspase action on FITC-VAD-fmk, apoptotic cells become fluorescent and the number of fluorescent cells was determined in triplicate on collections of 10 fields randomly examined under the fluorescent microscope.

pancreatic cancers = conditions: patients with pancreatic cancer; cited from earlier work
[7] = biological target: feto-acinar pancreatic protein (FAPP), oncofetal glycoisoform of pancreatic bile salt-dependent lipase (BSDL), on the surface of SOJ-6 human pancreatic tumor cells (human) (UniProt P19835); test: isotype control in indirect immunofluorescence flow cytometry (FL1-H) on SOJ-6 cells; antibody concentration not given; row 'Control -': Median 3,02
PANC-1 [8] = test: isotype control in indirect immunofluorescence flow cytometry (FL1-H) on PANC-1 cells (no FAPP); antibody concentration not given; row 'Control -': Median 3,22
PANC-1 [9] = test: isotype control in indirect immunofluorescence flow cytometry (FL1-H) on PANC-1 cells (no FAPP); main peak near the negative control with a tail to about 100-200 FL1-H; antibody concentration not given; row 'Control -': Mean 4,60
[10] = biological target: feto-acinar pancreatic protein (FAPP), oncofetal glycoisoform of pancreatic bile salt-dependent lipase (BSDL), on the surface of SOJ-6 human pancreatic tumor cells (human) (UniProt P19835); test: isotype control in indirect immunofluorescence flow cytometry (FL1-H) on SOJ-6 cells; broad histogram from about 2 to about 300 FL1-H, between the negative control and mAb16D10; antibody concentration not given; row 'Control -': Mean 3,43
NK cells = test: NK cell activation (ADCC): CD107 mobilization and IFN-γ production by flow cytometry; type: cell-based, human; conditions: presence of SOJ-6 cells
Description: Thawed purified human NK cells stimulated or not overnight with 100 UI/mL of IL-2 were mixed with SOJ-6 or B221 cell lines at an effector/target ratio equal to 1, alone or in the presence of rec16D10 (30 μg/mL) or rituxan (10 μg/mL). Cells were then incubated for 4 hours at 37° C. in the presence of FITC conjugated anti-CD107 mAbs (Becton Dickinson) and monensin (sigma). After incubation, cells were washed in PBS containing 2 mM EDTA to disrupt cell conjugates and stained for extracellular markers (PC5 conjugated anti-CD56 and PC7 conjugated anti-CD3 purchased from Beckman coulter). Cells were then fixed and permeabilized using IntraPrep reagent (Beckman Coulter). […] Samples were then analysed on FACScanto (Becton Dickinson).
The chimeric antibody rec16D10 (30 μg/ml) was incubated with target SOJ-6 cells together with NK cells, with or without overnight treatment with IL-2 (100 U/ml) (FIG. 19). As a control, the Rituxan antibody (10 μg/ml) was used with target B221 cells. Effector cells and target cells were used at a ratio of: 1/1 (100000 NK/well). Thawed purified NK cells from two donors (NK1 and NK2) were incubated with the antibodies and target cells. Activation of NK cells was examined by virtue of CD 107 staining and IFN-γ secretion. […] Under similar conditions, approximately 30% of NK1 and NK2 cells secreted IFN-γ (vs. less than 16% and 13% in the absence of antibody or with Rituxan in NK1 and NK2 cells, respectively) (FIG. 21).

SOJ-6 cells [11] = test: Annexin V / PI apoptosis assay; type: cell-based, human; conditions: antibodies 20 μg/ml, tunicamycin 25 or 50 μg/ml
Description: SOJ-6 cells (20.10^4 cells per well) were seeded onto 24 wells plates 72H before to start the experiment. Cells were incubated either with 20 μg/ml 16D10 IgM, or 20 μg/ml of a further recombinant 16D10 IgG1 antibody which contained the 16D10 variable regions linked fused to a human IgG1 constant region and human kappa light region for the heavy and light chains respectively, 25 μg/ml Tunicamycin or 50 μg/ml Tunicamycin. The AnnexinV/PI stainings were performed after 24H of culture using the AnnexinV-FITC Apoptosis Detection Kit I (BD Pharmingen) according to the manufacturer instructions. Stainings were acquired on a FACScan (Becton Dickinson, San Jose, Calif.) and results were analysed using FlowJo Software.

Sequence of feto-acinar pancreatic protein (FAPP), oncofetal glycoisoform of pancreatic bile salt-dependent lipase (BSDL), on the surface of SOJ-6 human pancreatic tumor cells (human) (P19835 21-753): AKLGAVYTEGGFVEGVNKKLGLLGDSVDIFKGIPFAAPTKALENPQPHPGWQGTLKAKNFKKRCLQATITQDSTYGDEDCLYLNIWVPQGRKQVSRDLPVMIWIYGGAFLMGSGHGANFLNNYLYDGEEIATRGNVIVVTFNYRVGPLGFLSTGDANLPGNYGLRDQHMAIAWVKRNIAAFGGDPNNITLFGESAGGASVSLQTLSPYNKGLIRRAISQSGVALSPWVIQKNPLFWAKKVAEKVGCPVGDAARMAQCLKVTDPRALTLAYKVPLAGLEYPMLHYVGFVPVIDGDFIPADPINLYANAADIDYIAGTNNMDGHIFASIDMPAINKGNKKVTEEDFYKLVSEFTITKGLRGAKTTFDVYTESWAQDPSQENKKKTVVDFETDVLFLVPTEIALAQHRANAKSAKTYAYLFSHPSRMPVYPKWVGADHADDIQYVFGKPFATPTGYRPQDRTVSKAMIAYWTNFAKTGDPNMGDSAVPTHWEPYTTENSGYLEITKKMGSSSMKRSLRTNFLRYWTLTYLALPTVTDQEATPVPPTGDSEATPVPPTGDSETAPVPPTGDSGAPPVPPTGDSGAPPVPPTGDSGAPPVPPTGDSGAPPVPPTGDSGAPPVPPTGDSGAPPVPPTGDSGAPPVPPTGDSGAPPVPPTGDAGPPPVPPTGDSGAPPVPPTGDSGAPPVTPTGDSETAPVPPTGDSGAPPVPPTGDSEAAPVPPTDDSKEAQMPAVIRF

N.N.[Cl][Pt][Cl] [Cisplatin, cis-diaminedichloridoplatinum(II)]
apoptosis observed by DAPI staining (nuclear fragmentation) (SOJ-6 cells [1]): low level of apoptosis
activation of caspase 9 and PARP (immunodetection) [2]: activated
proliferation by MTT assay (PANC-1 cells): dose dependent decrease in proliferation is seen for both cell lines
16D10 surface binding of drug-treated cells (flow cytometry, in words) ([3]; SOJ-6): decrease in expression of the 16D10 epitope
cell morphology of drug-treated cells [3]: clear morphological changes
16D10 staining by immunofluorescence of drug-treated cells [3]: showed staining with 16D10
Average (16D10 binding, flow cytometry) [3]: 324.6 +/− 26.3
16D10 epitope expression [3]: −32.5
proliferation by MTT assay (SOJ-6 cells [4]): dose dependent decrease in proliferation is seen for both cell lines

CCCCC[C@@H](O)[C@H]1C(=O)O[C@H](C)[C@@H](O)/C=C/C=C/C=C/C=C/C=C(\C)[C@@H](O)C[C@H](O)C[C@H](O)C[C@H](O)C[C@H](O)C[C@H](O)C[C@@H]1O [Filipin]
influence on the antiproliferative effect of mAb16D10 (SOJ-6 cells [5]): decreased

CCCC[C@@H](C)[C@@H](OC(=O)C[C@@H](CC(=O)O)C(=O)O)[C@H](C[C@@H](C)C[C@H](O)CCCC[C@@H](O)C[C@H](O)[C@H](C)N)OC(=O)C[C@@H](CC(=O)O)C(=O)O [Fumonisin 1, Fumonisin B1]
influence on the antiproliferative effect of mAb16D10 (SOJ-6 cells [5]): neither L-cyclo-serine (LCS) (an inhibitor of serine palmitoyltransferase) nor Fumonisin 1 or 2 (both inhibitors of dihydroceramide synthetase) interfered

CCCC[C@@H](C)[C@@H](OC(=O)C[C@@H](CC(=O)O)C(=O)O)[C@H](C[C@@H](C)CCCCCC[C@@H](O)C[C@H](O)[C@H](C)N)OC(=O)C[C@@H](CC(=O)O)C(=O)O [Fumonisin 2, Fumonisin B2]
influence on the antiproliferative effect of mAb16D10 (SOJ-6 cells [5]): neither L-cyclo-serine (LCS) (an inhibitor of serine palmitoyltransferase) nor Fumonisin 1 or 2 (both inhibitors of dihydroceramide synthetase) interfered

Nc1ccn(C2OC(CO)C(O)C2(F)F)c(=O)n1 (stereo not shown) [Gemcitabine, 4-amino-1-[3,3-difluoro-4-hydroxy-5-(hydroxymethyl)tetrahydrofuran-2-yl]-1H-pyrimidin-2-one]
apoptosis by caspase activity (number of apoptotic cells compared to control) (SOJ-6 cells [6]): induce apoptosis on SOJ-6 cells
activation of caspase 9 and PARP (immunodetection) [2]: activated
proliferation by MTT assay (PANC-1 cells): relatively resistant to gemcitabine
cell morphology of drug-treated cells [3]: clear morphological changes
16D10 staining by immunofluorescence of drug-treated cells [3]: showed staining with 16D10
Average (16D10 binding, flow cytometry) [3]: 419.0 +/− 36.2
16D10 epitope expression [3]: 0
proliferation by MTT assay (SOJ-6 cells [4]): a decrease in proliferation is seen only in SOJ-6 cells
improvement in survival at one year compared to untreated patients (pancreatic cancers): 18%

N[C@H]1CONC1=O [L-cyclo-serine]
influence on the antiproliferative effect of mAb16D10 (SOJ-6 cells [5]): neither L-cyclo-serine (LCS) (an inhibitor of serine palmitoyltransferase) nor Fumonisin 1 or 2 (both inhibitors of dihydroceramide synthetase) interfered

CCCCCCCCCC(=O)NC(CN1CCOCC1)C(O)c1ccccc1 (stereo not shown) [PDMP, Phenyl-2-decanoylamino-3-morpholino-1-propanol]
influence on the antiproliferative effect of mAb16D10 (SOJ-6 cells [5]): impaired the effect of mAb16D10 on SOJ-6 cell proliferation

IgM mouse SIGMA (antibody)
Median [7]: 19.8
Median (PANC-1 [8]): 4.61
Mean (PANC-1 [9]): 13
Mean [10]: 86.7

Rituxan: Rituxan antibody used as a control with target B221 cells [reference compound]
NK1 cells secreting IFN-γ (NK cells; donor NK1, IL-2 treated): less than 16%
CD 107-positive staining of NK1 cells (NK cells; donor NK1, IL-2 treated, E/T 1/1, rec16D10 30 μg/ml, Rituxan 10 μg/ml): < 30%
NK2 cells secreting IFN-γ (NK cells; donor NK2, IL-2 treated): < 13%
CD 107-positive staining of NK2 cells (NK cells; donor NK2, IL-2 treated, E/T 1/1, rec16D10 30 μg/ml, Rituxan 10 μg/ml): < 20%

methyl-β-cyclodextrin
influence on the antiproliferative effect of mAb16D10 (SOJ-6 cells [5]): decreased
influence on the antiproliferative effect of mAb16D10 (SOJ-6 cells [5]; listed as MBCD): decreases or abolishes the cell growth inhibiting activity of antibody 16D10

tunicamycin [reference compound]
apoptosis by Annexin V and Annexin V/PI staining (SOJ-6 cells [11]): induced significant levels of apoptosis
